Experimental data reported in patent publication US12403147B2, “Treatment of ocular inflammation following ocular surgery” (Oculis Operations Sàrl, priority 2019, dated 2025).
Values after ≈ are worked out from the molar mass of the structure shown.

What was measured:
[1] = 25° C.; cited from earlier work
[2] = Experimental: For facilitating the interpretation of obtained results, the stress conditions of described studies should be converted to the condition of the currently running long term stability program for an eye drop formulation. For this purpose, the values of pH drop for stock formulations stored in glass containers from the study were compared with pH drop profile for a clinical batch stored at 25° C. in LDPE plastic containers without antioxidant (STS).

Compound	solubility in pure water [1]	storage time during which the antioxidant can stabilize the formulation [2]
OC[C@H]1O[C@@H]2O[C@H]3[C@H](O)[C@@H](O)[C@@H](O[C@H]4[C@H](O)[C@@H](O)[C@@H](O[C@H]5[C@H](O)[C@@H](O)[C@@H](O[C@H]6[C@H](O)[C@@H](O)[C@@H](O[C@H]7[C@H](O)[C@@H](O)[C@@H](O[C@H]1[C@H](O)[C@H]2O)O[C@@H]7CO)O[C@@H]6CO)O[C@@H]5CO)O[C@@H]4CO)O[C@@H]3CO [α-cyclodextrin]	129.5 ± 0.7 mg/mL (≈ 133 mM)	–
OC[C@H]1O[C@@H]2O[C@H]3[C@H](O)[C@@H](O)[C@@H](O[C@H]4[C@H](O)[C@@H](O)[C@@H](O[C@H]5[C@H](O)[C@@H](O)[C@@H](O[C@H]6[C@H](O)[C@@H](O)[C@@H](O[C@H]7[C@H](O)[C@@H](O)[C@@H](O[C@H]8[C@H](O)[C@@H](O)[C@@H](O[C@H]9[C@H](O)[C@@H](O)[C@@H](O[C@H]1[C@H](O)[C@H]2O)O[C@@H]9CO)O[C@@H]8CO)O[C@@H]7CO)O[C@@H]6CO)O[C@@H]5CO)O[C@@H]4CO)O[C@@H]3CO [γ-cyclodextrin]	249.2 ± 0.2 mg/mL (≈ 192 mM)	–
DL-Tartaric acid	–	at least 1 year
